Experimental data taken from patent publication US20260174780A1, “BISMUTH-THIOL COMPOSITIONS AND METHODS FOR TREATING INFLAMMATORY DISEASES” (Microbion Corporation, priority 2022, published 2026).

Columns and labels:
[1] = tested on: FITC-induced contact hypersensitivity; experiment: FITC-induced contact hypersensitivity in mice (ear swelling, histopathology, ear cytokines); type: in vivo, BALB/c mice; settings: Group 3, 1 mg/mL topical; mean ± standard deviation
Method: Protocol: Male BALB/c mice at 8 weeks old are used in the study.
All animals, except those in Group 1 (Sham), were sensitized topically (TOP) on the shaved abdominal skin with 200 μL of 0.5% Fluorescein Isothiocyanate (FITC) dissolved in 20% tributyrin in acetone on Days 1 and 2. On Day 7, animals were challenged by applying 20 μL of 0.5% FITC solution onto both sides of the right ear. Animals in Group 1 received nothing.
Vehicle, BisEDT test articles and reference compound (tacrolimus) were administered topically (TOP) once daily (QD) from Day 6 to Day 9 for 4 consecutive days (1 hour before FITC challenge on Day 7). The vehicle for BisEDT was phosphate-buffered saline (PBS).
• 2.5 mg/mL BisEDT topical suspension • 1.25 mg/mL BisEDT topical suspension—prepared as a 1:1 dilution of 2.5 mg/mL BisEDT topical suspension in sterile water and vortexed to ensure homogeneity
Analysis: Ear swelling was measured by an experimenter blinded to treatment group, with a dial thickness micrometer gauge as an index of inflammation 30 min before dosing on Days 7, 8, 9 and 10. On Day 10, ear swelling was measured at 24 hours after the last dosing. Ear edema was calculated by subtracting the thickness of Day 7 (normal control) from Day n (treated ear). Percentage inhibition was calculated according to the formula: (Ic−It)/Ic×100, where Ic and It refer to the increase of ear thickness (mm) both in the control and treated animals. Body weight was recorded daily during the study period.
The animals were sacrificed on Day 10 and the ears were then harvested and weighed. Half of the right ear was fixed in 10% formalin for histopathology, and the other half was processed for cytokine measurement (IL-18, IL-6, and IL-10) using ThermoFisher Mouse ProcartaPlex Kit by Luminex.

[2] = tested on: lung tissue of M. abscessus infected mice; experiment: Lung histopathology in chronic M. abscessus infection study; type: in vivo, SCID/Beige mice; settings: amikacin-treated (100 mg/kg/day), FIG. 5B
Method: After 28 days of treatment with BisEDT, animals were euthanized by CO2 and secondary cardiac puncture to collect whole blood for quantitation of BisEDT concentration. Lungs and spleens from the CFU mice were homogenized with 1:1 H2O:Dey-Englev neutralizing broth to deactivate BisEDT. CFUs were determined after serial dilution. Mice for histology and the lung pair split, one half in formalin the other half weighed and snap frozen in liquid N2 to determine tissue concentration of BisEDT.
Samples for histology were processed by the Veterinary Diagnostic Laboratory. Slides were stained with hematoxylin-eosin (HE stain) for general pathology as well as a slide for acid-fast stain to highlight the mycobacterial infection in lung tissue.

Hypo-InflammaSkin models = experiment: Ex vivo human skin model of psoriasis (Hypo-InflammaSkin), cytokine release in culture medium; type: cell-based; settings: betamethasone 0.05% topical 25 μL daily Day 0-6
Text: Background: InflammaSkin® model is a validated psoriasis-like model developed to reproduce key features of pro-Th17/Th1 inflammation associated with psoriasis. It relies on the in situ activation of resident T-cell of normal skin biopsies and their further polarization into Th17/Th1 phenotype with the supplementation of culture medium with a cocktail of pro-inflammatory cytokines.
Model production and culture: 2 HypoSkin models of 15 mm in diameter (1.76 cm^2) were produced from 1 donor and cultured with 2 mL standard HypoSkin® medium. 20 Hypo-InflammaSkin models were produced from 1 donor by inducing in sit activation and Th17/Th1 polarization of skin resident T cells with proprietary cocktail and cultured with 2 mL Hypo-InflammaSkin® culture medium. The total treatable surface area of the models was 113 mm^2, and dosing of BisEDT took this into account based on dosing of the topical treatment. Models were maintained in standard cell culture conditions for the whole culture duration at 37° C., 5% CO2 and water saturation, with appropriate culture medium renewed every day.
Treatment Groups: Model Treatment: (1) HypoSkin® untreated control; (2) Hypo-InflammaSkin® untreated control; (3) topical betamethasone (positive control); (4) topical BisEDT—2.5 mg/mL (treatment applied every day from day 0 to 6; (5) topical BisEDT—1.25 mg/mL (treatment applied every day from day 3 to 6). N=3 per treatment group, except N=5 for Hypo-InflammaSkin® and N=1 for HypoSkin®.
Topical Treatment—Betamethasone (control): 25 μL of betamethasone was topically applied onto the surface of each skin model. Topical application was performed from Day 0 to Day 6 after removal of the previous treatment residues using a cotton swab.
Topical Treatment—BisEDT: 36 μL of the test compound was topically applied onto the surface of each skin model, massaging across the entire surface area for 1 minute, using a parafilm wrapped cotton swab; the compound was left on the skin. Topical application was performed from Day 0 to Day 6 (Treatment Group 4) or Day 3 to Day 6 (Treatment Group 5). A total of 9 models were topically treated.
Culture Media—culture media was collected on Day 3 prior to treatment application and on Day 7 and frozen at −80° C. A total of 42 culture media samples were collected.
IL-22 release: IL-22 release was measured in culture media using ELISA Human IL-22 Quantikine Kit (Bio-techne, ref D2200). Only samples from control conditions 1 to 3 were analyzed to assess donor's response to T cell activation. Each sample was analyzed in duplicate.
MSD Immunoassay—cytokine release (IL-2, IL-13, IL-15, IL-17A, IL-22, TNF-α, INF-γ, MIP-1β, and […]) in the culture medium was measured using the V-PLEX Plus Human Cytokine Kit (KI5089G, MesoScale Discovery) (FIGS. 13D-13S).

C=CC[C@@H]1/C=C(\C)C[C@H](C)C[C@H](OC)[C@H]2O[C@@](O)(C(=O)C(=O)N3CCCC[C@H]3C(=O)O[C@H](/C(C)=C/[C@@H]3CC[C@@H](O)[C@H](OC)C3)[C@H](C)[C@@H](O)CC1=O)[C@H](C)C[C@@H]2OC [Tacrolimus, tacrolimus]
Hyperkeratosis (lesion score) [1]: 0.88 ± 0.64 | Hyperplasia (lesion score) [1]: 1.63 ± 0.52 | Inflammation (lesion score) [1]: 1.38 ± 0.52 | Necrosis (lesion score) [1]: 0.13 ± 0.35 | Total histological score [1]: 4.00 ± 1.69

NCC[C@H](O)C(=O)N[C@@H]1C[C@H](N)[C@@H](O[C@H]2O[C@H](CN)[C@@H](O)[C@H](O)[C@H]2O)[C@H](O)[C@H]1O[C@H]1O[C@H](CO)[C@@H](O)[C@H](N)[C@H]1O [amikacin, reference compound]
lung histomorphologic observation [2]: infiltration of mononuclear phagocytes, interstitial edema, and interstitial hemorrhage

C[C@H]1C[C@H]2[C@@H]3CCC4=CC(=O)C=C[C@]4(C)[C@@]3(F)[C@@H](O)C[C@]2(C)[C@@]1(O)C(=O)CO [betamethasone, reference compound]
IL-22 release, average concentration (ELISA) (Hypo-InflammaSkin models): 16.67 µg/mL
